The source made the active and inactive calls.
Columns and labels:
[1] = target: T1, E3 ubiquitin-protein ligase XIAP (Homo sapiens, UniProt P98170); assay: Counter Screen using XIAP-Bir3 for Chemical Antagonists of Bir1/2 domains of IAP-family anti-apoptotic proteins. [Related pubchem assays (depositor defined):AID1018, AID1449, AID1514, AID1638, AID1749, AID1750, AID488957, AID488963]
[2] = target: T1, E3 ubiquitin-protein ligase XIAP; assay: XIAP antagonists, biochemical, IAP family, fluorescence polarization (AID 1018); assay type: functional
Aminopeptidase N = target: T2, Aminopeptidase N (Plasmodium falciparum FcB1/Columbia, UniProt O96935); assay: P. falciparum M1AAP inhibitors, biochemical, fluorogenic H-Leu-NHMec substrate, 1536-well (AID 1445); parameters: species or system Plasmodium falciparum 3D7, 3D7
T2 sequence (O96935 whole entry): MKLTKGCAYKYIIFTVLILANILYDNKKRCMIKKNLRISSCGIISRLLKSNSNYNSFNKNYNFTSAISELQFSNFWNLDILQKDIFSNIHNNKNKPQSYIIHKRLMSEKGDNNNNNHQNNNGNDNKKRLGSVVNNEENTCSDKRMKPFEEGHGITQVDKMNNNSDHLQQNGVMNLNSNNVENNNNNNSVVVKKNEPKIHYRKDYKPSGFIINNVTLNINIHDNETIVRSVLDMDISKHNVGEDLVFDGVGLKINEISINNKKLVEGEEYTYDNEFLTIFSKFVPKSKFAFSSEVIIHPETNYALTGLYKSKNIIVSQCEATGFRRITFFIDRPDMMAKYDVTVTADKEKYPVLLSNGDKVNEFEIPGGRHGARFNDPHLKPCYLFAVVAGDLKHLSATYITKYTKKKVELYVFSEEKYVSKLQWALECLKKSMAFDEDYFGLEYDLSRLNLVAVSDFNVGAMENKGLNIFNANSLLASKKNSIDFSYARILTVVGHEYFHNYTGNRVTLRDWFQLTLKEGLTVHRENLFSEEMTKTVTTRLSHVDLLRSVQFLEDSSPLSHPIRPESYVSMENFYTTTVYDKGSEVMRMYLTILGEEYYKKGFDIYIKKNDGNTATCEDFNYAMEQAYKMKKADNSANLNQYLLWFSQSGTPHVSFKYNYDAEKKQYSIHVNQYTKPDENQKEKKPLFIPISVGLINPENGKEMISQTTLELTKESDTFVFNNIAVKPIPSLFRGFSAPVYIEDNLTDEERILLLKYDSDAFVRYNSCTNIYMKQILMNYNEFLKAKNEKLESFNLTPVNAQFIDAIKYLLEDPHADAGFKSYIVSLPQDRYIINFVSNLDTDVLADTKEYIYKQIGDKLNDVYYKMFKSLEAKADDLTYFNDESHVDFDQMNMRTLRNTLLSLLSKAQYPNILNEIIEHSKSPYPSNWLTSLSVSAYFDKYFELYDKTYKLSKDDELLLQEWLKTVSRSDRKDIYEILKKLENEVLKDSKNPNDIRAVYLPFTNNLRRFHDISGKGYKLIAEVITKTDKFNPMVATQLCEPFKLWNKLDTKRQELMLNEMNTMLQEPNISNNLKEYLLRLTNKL

[3] = HEp-2 cell cytotoxicity, dose response, cytotoxicity control for RSV inhibitor project, HTS (AID 2410); assay type: functional; conditions: human respiratory syncytial virus
[4] = miR-122 activators in hepatoma reporter cells, dose response, cell-based, Huh7 psiCHECK-miR122, Renilla luciferase, cherry-picked (AID 651956); assay type: functional;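 note: huh7 hepatoma cells stably carrying a psiCHECK-2 miR-122 sensor plasmid; renilla luciferase signal reporting endogenous miR-122 activity after 48 h compound exposure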
Estrogen receptor beta [5] = target: T3, Estrogen receptor beta (Homo sapiens, UniProt Q92731);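 note: recombinant ER-beta bound to coactivator SRC1 peptide in presence of estradiol agonist; inhibitors block coactivator peptide binding and lower the FRET signal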
T3 sequence (Q92731 whole entry): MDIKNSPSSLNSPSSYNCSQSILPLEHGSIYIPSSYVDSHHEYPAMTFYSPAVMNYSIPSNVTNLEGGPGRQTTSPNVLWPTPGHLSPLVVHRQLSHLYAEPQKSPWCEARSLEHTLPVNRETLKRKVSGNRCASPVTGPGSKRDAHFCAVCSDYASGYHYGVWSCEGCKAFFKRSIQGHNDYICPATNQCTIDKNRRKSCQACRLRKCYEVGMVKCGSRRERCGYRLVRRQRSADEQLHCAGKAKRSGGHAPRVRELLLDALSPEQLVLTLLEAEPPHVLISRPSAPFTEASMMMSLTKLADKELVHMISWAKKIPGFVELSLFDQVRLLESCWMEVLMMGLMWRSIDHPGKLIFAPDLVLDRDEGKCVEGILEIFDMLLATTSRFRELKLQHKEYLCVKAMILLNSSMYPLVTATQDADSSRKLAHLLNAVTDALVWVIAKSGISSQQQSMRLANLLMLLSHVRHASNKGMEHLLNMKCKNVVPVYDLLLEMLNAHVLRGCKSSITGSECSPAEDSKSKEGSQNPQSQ

Estrogen receptor beta [6] = target: T3, Estrogen receptor beta; assay: ERβ–SRC-3 coactivator interaction inhibitors, confirmation, orthogonal assay, biochemical, ELISA, streptavidin-HRP readout (AID 1060)
[7] = target: T4, Carboxy-terminal domain RNA polymerase II polypeptide A small phosphatase 1 (Homo sapiens, UniProt Q9GZU7); assay: inhibitors of CTDSP1, concentration-response testing, biochemical assay, absorbance-based, actives from ultra-high-throughput screening (AID 540297); assay type: functional
T4 sequence (Q9GZU7 whole entry): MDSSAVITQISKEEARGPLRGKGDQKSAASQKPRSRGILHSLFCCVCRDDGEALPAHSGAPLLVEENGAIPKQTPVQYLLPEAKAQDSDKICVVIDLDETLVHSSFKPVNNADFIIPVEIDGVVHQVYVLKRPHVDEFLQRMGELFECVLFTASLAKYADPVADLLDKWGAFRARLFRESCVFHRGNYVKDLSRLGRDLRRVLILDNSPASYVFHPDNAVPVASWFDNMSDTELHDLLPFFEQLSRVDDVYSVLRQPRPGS

P388/ADR = assay: cells; assay type: functional; conditions: Mus musculus
SN12K1 = assay: cells; assay type: functional; conditions: Homo sapiens
P388 = assay: cells; assay type: functional; conditions: Mus musculus
[8] = target: T5, Rac GTPase-activating protein 1 (Homo sapiens, UniProt Q9H0H5); assay: MgcRacGAP GTPase-activating activity inhibitors, confirmation, biochemical, ADP Hunter fluorescence, primary and confirmatory (AID 624330); assay type: functional
T5 sequence (Q9H0H5 whole entry): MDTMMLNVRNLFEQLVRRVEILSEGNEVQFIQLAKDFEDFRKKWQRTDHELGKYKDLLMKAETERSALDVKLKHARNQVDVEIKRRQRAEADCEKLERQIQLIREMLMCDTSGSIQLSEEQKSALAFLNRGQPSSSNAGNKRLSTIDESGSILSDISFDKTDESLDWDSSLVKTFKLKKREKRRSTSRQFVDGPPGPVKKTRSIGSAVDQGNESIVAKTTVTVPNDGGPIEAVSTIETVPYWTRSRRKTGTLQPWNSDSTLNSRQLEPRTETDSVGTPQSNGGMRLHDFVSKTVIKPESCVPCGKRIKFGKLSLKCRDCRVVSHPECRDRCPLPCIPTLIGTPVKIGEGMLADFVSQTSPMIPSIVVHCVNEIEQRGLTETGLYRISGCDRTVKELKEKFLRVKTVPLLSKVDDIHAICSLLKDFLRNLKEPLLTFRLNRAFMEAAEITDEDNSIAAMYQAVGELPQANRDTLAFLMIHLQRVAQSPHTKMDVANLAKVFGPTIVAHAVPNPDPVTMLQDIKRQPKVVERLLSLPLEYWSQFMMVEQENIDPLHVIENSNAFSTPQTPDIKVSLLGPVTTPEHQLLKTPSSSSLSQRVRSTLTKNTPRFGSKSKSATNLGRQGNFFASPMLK

[9] = target: T6, Sentrin-specific protease 8 (Homo sapiens, UniProt Q96LD8); assay type: functional;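 note: kinetic enzyme assay of SENP8 cleaving a Nedd8 protein substrate, dose-response confirmation of screening hits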
T6 sequence (Q96LD8 whole entry): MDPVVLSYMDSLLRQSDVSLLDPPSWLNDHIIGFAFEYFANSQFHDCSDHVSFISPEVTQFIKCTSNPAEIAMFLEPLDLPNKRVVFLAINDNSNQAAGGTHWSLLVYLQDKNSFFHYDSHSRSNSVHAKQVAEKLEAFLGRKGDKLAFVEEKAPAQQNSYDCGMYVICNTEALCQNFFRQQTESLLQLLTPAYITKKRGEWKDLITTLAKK

[10] = growth suppression of PTEN-null colon cells, dose response, cell-based, HCT116 PTEN knockout (AID 1047); assay type: functional;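 note: HCT116 colon tumor cells with PTEN knocked out; cells exposed to compound for 60 hours before readout; potency for loss of cell viability measured by luminescence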
[11] = growth suppression of beta-catenin-knockout colon cells, dose response, cell-based, HCT116, human colon tumor (AID 1045); assay type: functional;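 note: HCT116 colon tumor cells with beta catenin knocked out; cells exposed to compound for 60 hours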
[12] = THP-1 cell cytotoxicity, dose response, cytotoxicity control for non-replicating M. tuberculosis project (AID 489025); assay type: functional
cells = assay type: functional
[13] = target: Heat shock protein HSP 90-alpha (Homo sapiens, UniProt P07900); assay type: functional, organism-based

T1 sequence (P98170 whole entry): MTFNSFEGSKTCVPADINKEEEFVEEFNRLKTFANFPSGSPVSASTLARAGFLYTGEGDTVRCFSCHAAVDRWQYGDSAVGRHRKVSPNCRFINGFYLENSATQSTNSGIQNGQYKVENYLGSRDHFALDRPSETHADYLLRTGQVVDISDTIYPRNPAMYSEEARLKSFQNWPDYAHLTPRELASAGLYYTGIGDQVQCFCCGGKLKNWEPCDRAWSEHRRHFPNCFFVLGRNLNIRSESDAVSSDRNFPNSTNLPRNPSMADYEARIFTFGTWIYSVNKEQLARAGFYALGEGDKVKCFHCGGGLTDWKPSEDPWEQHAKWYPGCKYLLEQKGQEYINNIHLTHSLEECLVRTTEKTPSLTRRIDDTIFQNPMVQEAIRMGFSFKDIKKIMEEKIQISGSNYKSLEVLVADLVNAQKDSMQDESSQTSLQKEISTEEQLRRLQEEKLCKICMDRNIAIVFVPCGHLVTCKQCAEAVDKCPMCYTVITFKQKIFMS

c1ccc(N=Nc2cn[nH]c2-c2ccco2)cc1
IC50 [1]: > 100 µM (inactive) | IC50 [2]: > 100 µM (not active)

CCN1CCN(CCCNC(=O)Cn2cc3c(n2)CCCC3)CC1
IC50 [1]: > 100 µM (inactive) | IC50 [2]: > 100 µM (not active)

O=C(NNC(=O)c1ccc(O)cc1O)c1ccc(Cl)cc1
IC50 (Aminopeptidase N): 58.1 µM (active)

OC(c1cc(C(F)(F)F)nc2c(Cl)cc(Cl)cc12)C1CCCCN1 (centres undefined)
CC50 [3]: 15.8 µM (active) | AC50 [4]: 21.6 µM (active)

O=C(COC(=O)c1ccccc1)NCc1ccco1
IC50 (Estrogen receptor beta [5]): 5.54 µM (active) | IC50 (Estrogen receptor beta [6]): 0.351 µM (not active) | IC50 [7]: 11.1 µM (active)

O=C(NC(Cc1ccc(I)cc1)C(=O)O)c1ccc(I)cc1 (centres undefined)
GI50 (P388/ADR): 38 µM (inactive) | GI50 (SN12K1): > 100 µM (inactive) | GI50 (P388): 41.4 µM (inactive)

COc1ccccc1Cc1nc(-c2ccccc2)nn(C2OC(COC(C)=O)C(OC(C)=O)C(OC(C)=O)C2OC(C)=O)c1=S (centres undefined)
GI50 (P388/ADR): 19.6 µM (inactive) | GI50 (SN12K1): 9.95 µM (inactive) | GI50 (P388): 21.9 µM (inactive)

CC1C(=O)C(C)C(c2cccs2)N(N=O)C1c1cccs1 (centres undefined)
GI50 (P388/ADR): 36 µM (inactive) | GI50 (SN12K1): > 100 µM (inactive) | GI50 (P388): 39.4 µM (inactive)

COc1ccc(/C=C2\CCNC2=O)cc1
GI50 (P388/ADR): 82.4 µM (inactive) | GI50 (SN12K1): > 100 µM (inactive) | GI50 (P388): > 100 µM (inactive)

CC(NC(=O)C(C)NC(=O)C(N)CCP(C)(=O)O)C(=O)O (centres undefined)
GI50 (P388/ADR): > 100 µM (inactive) | GI50 (SN12K1): > 100 µM (inactive) | GI50 (P388): > 31.6 µM (inactive)

C=CCn1c(=O)/c(=C/c2ccc(O)cc2)s/c1=C(/C#N)c1nnc2n1CCCCC2
IC50 (Aminopeptidase N): 51.1 µM (active) | IC50 [8]: 58.7 µM (active)

O=C(Nc1c(-c2ccccc2)[nH][nH]c1=O)c1cnccn1
IC50 [9]: 42.5 µM (active)

NC(=O)c1ccc(/N=C/c2ccc([N+](=O)[O-])s2)cc1
EC50 [10]: 5.94 µM (active) | EC50 [11]: 5.3 µM (active) | CC50 [12]: 19.2 µM (active) | IC50 (cells): 13.4 µM (active) | AC50 [13]: 1.98 µM (active) | IC50 [9]: 2.47 µM (active)
